{"source": "patent US9648880B2", "about": "“Antifungal agents and uses thereof” (University of Massachusetts, priority 2012, dated 2017)", "key": {"[1]": {"tested_on": "C. albicans hyphae formation", "assay": "filamentation assay (hyphal morphogenesis)", "type": "cell-based, Candida albicans", "conditions": "for inhibition of hyphal formation and induction of RFP: 12.5 μM, Spider media 16 hours, HWP1-RFP reporter; for formation of hyphae: Spider media, HWP1-RFP reporter (Example 14)", "source_text": "Because the ability to interconvert between yeast and hyphal morphologies is usually correlated with pathogenicity (Finkel, 2010), we explored this observation in more detail. First, we assessed the effect of our compounds on the induction of hyphae by “Spider” media (Chauhan, 2009). For this experiment, we used a strain that contains the hyphal-specific HWP1 promoter to the Red Fluorescent Protein (RFP) open reading frame (Ganguly, 2011), which provides a molecular reporter for hyphae formation that we used in addition to visual examination of cell morphology. We initially tested each of the compounds that inhibit adhesion to polystyrene (FIG. 1B), as well as compounds #9, Q1 and Q2 (FIG. 3A), at concentration of 12.5 μM. […] Compounds Q1 and Q2 share a “Scaffold 1” backbone with compounds #4 and #9, but contain a quinoline group (FIG. 3A). Therefore, the compounds with a quinoline group can inhibit hyphae formation, but not adhesion to polystyrene or human cells (FIG. 3). […] Additionally, multiple chemical backbones are able to inhibit hyphae formation, because compound #12 has a “Scaffold 2” backbone (Table 2). To better discriminate the inhibitory compounds, we tested #4, 12 and Q1 at lower concentrations. […] Furthermore, as in the polystyrene adhesion assay (FIG. 8), compound #4 is effective at inhibiting hyphae formation at concentrations >2.5 μM.\nOvernight cultures of SC5314 or SGH584 were pregrown in uridine-supplemented SC media at 30° C. to an OD600>13 and diluted 1:10 into prewarmed Spider medium (1% Peptone (Difco), 1% Mannitol (Sigma) and 0.2% K2HPO4 (Sigma) (Chauhan, 2009) in glass tubes and grown for 16 hrs at 37° C. shaking at 200 rpm in the presence or absence of drugs as indicated. DIC and fluorescence images were acquired using a Zeiss Axiovert 200 inverted microscope equipped with a Qicam 12-bit Fast 1394 digital CCD camera (Qimaging). Image acquisition was carried out using Openlab 5 software (Improvison).\nBecause the ability to interconvert between yeast and hyphal morphologies is usually correlated with pathogenicity, we explored this in more detail, examining induction of hyphae upon carbon starvation (using Spider media). We used a strain that contains the Red Fluorescent Protein (RFP) open reading frame driven by the hyphal-specific HWP1 promoter (Ganguly et al., Eukaryotic Cell 10:1448, 2011), which provides a molecular reporter for hyphae formation in addition to cell morphology. […] Therefore, the shared backbone of these compounds correlates with inhibition of multiple activities.\nHyphal morphogenesis is induced by multiple stimuli that act via multiple signal transduction pathways and is mediated by a complex transcriptional network. […] We detected morphological difference between control and compound #4-treated cultures as early as 60 minutes in 10% serum, and 90 minutes in Spider media."}, "[2]": {"tested_on": "C. albicans SC5314-GFP biofilm", "assay": "biofilm formation on silicone elastomers", "type": "cell-based, Candida albicans", "conditions": "for biofilm formation, visual inspection: silicone mesh", "description": "FIGS. 5A-5C. Effect of small molecules on biofilm formation in vitro. FIG. 5A is a series of photographs showing biofilm formation on silicone elastomers. Biofilm assay was performed with SC5314-GFP and edt1^Δ/Δ-GFP and photographed after 60 hrs. Indicated compounds were added at 50 μM. Turbid medium indicates planktonic cells unattached to silicone elastomers when biofilm formation is inhibited. Clear medium with the cell attached to the silicone elastomer indicate establishment of functional biofilm. Each treatment was done in triplicate. FIG. 5B is a graph showing quantitation of turbidity of medium. Media was removed from the wells, vortexed vigorously and the OD at 600 nm was measured in a spectrophotometer. FIG. 5C is a graph showing quantitation of dry weight of biofilm. Dry weight in mg of air-dried silicone elastomers.\nFungal biofilm formation on implanted medical devices is a serious medical problem because these biofilms can lead to life-threatening systemic infections. An established in vitro assay to study device colonization makes use of silicone mesh as a surrogate surface (Nobile, 2006). We tested how the compounds that affected polystyrene adhesion (FIG. 1) would affect biofilm formation by visual inspection of the biofilms formed, by measuring the optical density of the supernatant liquid cultures, and by measuring their dry weights. […] Therefore, compounds #4 and Q1 were effective inhibitors of both hyphal morphogenesis (FIG. 4) and biofilm formation on silicone mesh (FIG. 5).\nWe adapted a published method (Nobile, 2006, supra). Autoclaved, pre-weighed silicone mesh squares (Bentec, Catalog Number PR72034-04N) were incubated overnight at 37° C. with undiluted bovine serum. Following washing with PBS, the squares were transferred to 12-well plates and incubated with 0.5 OD/ml SC5314-GFP cells in Spider medium (with or without drugs as indicated), for 90 min at 37° C., shaking at 200 rpm. Squares were washed in PBS and transferred to new 12-well plates containing fresh Spider medium with fresh drugs and incubated for 60 hrs in a 37° C. shaker at 200 rpm. The plates were then photographed, the liquid media were collected for A600 nm measurements, and the dry weights of the bound biofilms were measured following drying of the silicone squares in a chemical hood."}, "[3]": {"tested_on": "C. albicans SC5314", "assay": "alamarBlue-based polystyrene adhesion assay", "type": "cell-based, Candida albicans", "source_text": "We prioritized the candidate compounds by testing the dose-dependence of their effects. Because of the laborious washing required to remove background crystal violet dye staining, we developed adhesion assays using alternative detection reagents. Previous experiments screens have used the vital dye alamarBlue to measure Candida viability (Lafleur, J. Antimicrob Chemother. 66: 820-826, 2011; Youngsaye supra), so we tested this reagent as a way to measure cells remaining adhered after washing. […] The majority of the reordered compounds were effective at reducing Candida adhesion at 50 μM, the concentration originally tested during the screen. […] Although compounds that were still effective at 25 μM were less generally less so at 7.5 μM (FIG. 1C), many candidates still reduced adhesion by >50% at this lower concentration.\nOvernight cultures of SC5314 and edt1^−/− cells were grown and plated onto Immulon 2HB 96-well microtiter plates and treated with small molecules as described above. Following incubations, media was decanted and plates were washed twice with 100 μl/well PBS. alamarBlue (Life Technologies) was resuspended to a final concentration of 5% in RPMI buffered with 0.165 M MOPS and then 100 μl was added to each well, followed by further incubation for 2 hours at 37° C. Fluorescence signals at 555Ex/585Em were read using a SpectraMax M5 Plate reader (Molecular Devices)."}, "[4]": {"tested_on": "C. elegans infected with C. albicans", "assay": "C. elegans pathogenesis assay", "type": "in vivo, Caenorhabditis elegans", "conditions": "12.5 μM", "description": "We therefore tested whether compound #4 can alter fungal infections in two in vivo settings. First, we performed pathogenesis assays in which nematodes (Caenorhabditis elegans) are infected with C. albicans, resulting in killing of the nematode host (Jain, 2009; Okoli, 2009). We used this assay to test whether compound #4 might have a protective effect, exposing C. elegans to Candida albicans and either DMSO vehicle, the commonly used antifungal drug fluconazole at 12.5 μM, or compound #4 at the same concentration. […] Therefore, consistent with its in vitro activities, compound #4 functions as an antifungal agent in this model infection system.\nThree worms in the L3/L4 stage were transferred to each of two NGM agar plates containing E. coli OP50 and grown at 20° C. for four days. On the day of the experiment, worms were washed off the plates with M9 buffer and centrifuged at 900×g for 2 min. The supernatant was removed, and the worms were then resuspended in a bleach solution (1:4 dilution of commercial bleach (5.25%) diluted in 0.25 M sodium hydroxide). The worm suspension was mixed gently by inversion for 3 min, and centrifuged for 2 min at 2,000×g. The pellet containing the eggs was washed with M9 buffer and centrifuged at 2,000×g for 2 min and then resuspended in 500 μl M9 buffer. […]"}}}
{"smiles": "O=C(c1csc2ccccc12)N1CCN(c2ccc(Cl)c(Cl)c2)CC1", "note": "[Compound 3]", "values": [{"measurement": "inhibition of hyphal formation and induction of RFP", "setting": "[1]", "result": "did not block hyphal formation as efficiently"}]}
{"smiles": "Cc1ccc(C(=O)N2CCN(c3ccc(Cl)cc3)CC2)cc1C", "note": "[Compound 7]", "values": [{"measurement": "inhibition of hyphal formation and induction of RFP", "setting": "[1]", "result": "did not block hyphal formation as efficiently"}, {"measurement": "biofilm formation, visual inspection", "setting": "[2]; 50 μM, 60 hrs", "result": "most effectively kept the cells dispersed in the media rather than on the mesh"}]}
{"smiles": "Cc1ccc(N2CCN(C(=O)c3ccccc3)CC2)cc1Cl", "note": "[Compound 8]", "values": [{"measurement": "inhibition of hyphal formation and induction of RFP", "setting": "[1]", "result": "did not block hyphal formation as efficiently"}]}
{"smiles": "COc1ccc(C(=O)Nc2cccc(Cl)c2)cc1Br", "note": "[Compound 12]", "values": [{"measurement": "synergy on adhesion upon combining compound #4 and compound #12", "setting": "[3]; #4 1.5 μM with #12 4 and 6 μM", "result": "did not further reduce adhesion"}, {"measurement": "effect on adhesion of compound alone", "setting": "[3]; compound #4 1.5 μM, compound #12 4 and 6 μM", "result": "partial effects"}, {"measurement": "hyphae formation induced by Spider media", "setting": "[1]; 5 μM", "result": "A few hyphae were observed"}, {"measurement": "hyphae formation induced by Spider media", "setting": "[1]; 10 μM", "result": "completely blocked the hyphae formation"}, {"measurement": "inhibition of hyphal formation and induction of RFP", "setting": "[1]", "result": "most potently inhibited hyphal formation and induction of RFP"}, {"measurement": "biofilm formation, visual inspection", "setting": "[2]; 50 μM, 60 hrs", "result": "most effectively kept the cells dispersed in the media rather than on the mesh"}]}
{"smiles": "CCOc1ccc(NC(=O)c2c(NC(=O)CNCCc3ccccc3)sc3c2CCC3)cc1", "note": "[Compound 14]", "values": [{"measurement": "formation of hyphae", "setting": "[1]", "result": "blocked formation of hyphae"}]}
{"smiles": "Cc1cc(C)n(CC(O)Cn2c3ccc(Cl)cc3c3cc(Cl)ccc32)c(=O)n1", "note": "(centres unmarked) [Compound 21]", "values": [{"measurement": "media density (OD 600 nm)", "setting": "[2]; 50 μM, 60 hrs", "result": "more modest than for the other compounds tested"}, {"measurement": "biofilm formation, visual inspection", "setting": "[2]; 50 μM, 60 hrs", "result": "most effectively kept the cells dispersed in the media rather than on the mesh"}]}
{"smiles": "O=C(NCCC12CC3CC(CC(C3)C1)C2)c1ccc(S(=O)(=O)N2CCOCC2)cc1", "note": "[Compound 26]", "values": [{"measurement": "formation of hyphae", "setting": "[1]", "result": "blocked formation of hyphae"}]}
{"smiles": "COc1ccc(N2CCN(C(=O)CCCN3C(=O)c4cccc5cccc(c45)C3=O)CC2)cc1", "note": "[Compound 27]", "values": [{"measurement": "formation of hyphae", "setting": "[1]", "result": "blocked formation of hyphae"}, {"measurement": "biofilm formation on silicone mesh", "setting": "[2]; Example 14", "result": "effective inhibitors of both hyphal morphogenesis and biofilm formation on silicone mesh"}]}
{"smiles": "OC(Cn1cncn1)(Cn1cncn1)c1ccc(F)cc1F", "note": "[fluconazole, reference compound]", "values": [{"measurement": "lifespan of infected worms", "setting": "[4]", "result": "increased the lifespan of the infected worms"}]}
